From ChEMBL document CHEMBL1153973, “Regioisomerism-dependent TLR7 agonism and antagonism in an imidazoquinoline” (Bioorg Med Chem Lett, 2009)

Assays:
Toll-like receptor 7 [1] = target: T1, Toll-like receptor 7 (Homo sapiens, UniProt Q9NYK1); assay: Agonist activity at TLR7 expressed in HEK293 cells assessed as increase in NF-kappaB activation at 25 ug/mL by SEAP assay; type: functional, cell-based
T1 sequence (Q9NYK1 whole entry): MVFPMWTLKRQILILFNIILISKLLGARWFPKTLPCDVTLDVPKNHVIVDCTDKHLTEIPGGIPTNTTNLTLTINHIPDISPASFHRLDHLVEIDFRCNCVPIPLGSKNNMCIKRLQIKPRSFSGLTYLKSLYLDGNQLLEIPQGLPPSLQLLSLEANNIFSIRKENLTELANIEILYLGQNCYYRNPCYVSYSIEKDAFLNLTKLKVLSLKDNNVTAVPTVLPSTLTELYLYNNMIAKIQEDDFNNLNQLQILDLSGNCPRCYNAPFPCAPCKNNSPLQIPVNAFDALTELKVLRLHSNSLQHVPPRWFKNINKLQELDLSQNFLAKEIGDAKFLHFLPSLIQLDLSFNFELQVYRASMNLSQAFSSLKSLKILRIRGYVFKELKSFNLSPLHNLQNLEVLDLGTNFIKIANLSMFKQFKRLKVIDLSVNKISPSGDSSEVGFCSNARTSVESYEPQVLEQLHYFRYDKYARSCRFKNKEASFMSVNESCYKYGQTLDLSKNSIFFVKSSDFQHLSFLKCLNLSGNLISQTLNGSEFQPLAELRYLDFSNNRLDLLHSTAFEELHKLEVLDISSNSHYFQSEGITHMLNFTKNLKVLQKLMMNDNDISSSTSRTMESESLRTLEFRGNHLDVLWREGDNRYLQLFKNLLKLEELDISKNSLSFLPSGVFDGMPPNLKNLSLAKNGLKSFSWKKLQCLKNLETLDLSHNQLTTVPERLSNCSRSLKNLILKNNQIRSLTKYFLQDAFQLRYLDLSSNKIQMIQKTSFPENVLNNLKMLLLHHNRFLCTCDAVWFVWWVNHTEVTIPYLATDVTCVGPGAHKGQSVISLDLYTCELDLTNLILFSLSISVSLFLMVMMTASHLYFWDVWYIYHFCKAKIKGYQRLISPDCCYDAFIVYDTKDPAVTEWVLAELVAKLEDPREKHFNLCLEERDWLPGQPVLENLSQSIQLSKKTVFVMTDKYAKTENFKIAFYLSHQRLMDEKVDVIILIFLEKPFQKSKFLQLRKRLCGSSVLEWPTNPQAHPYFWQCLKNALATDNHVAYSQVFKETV

Toll-like receptor 7 [2] = target: T1, Toll-like receptor 7

Row | SMILES | IC50 (Toll-like receptor 7 [1]) | IC50 (Toll-like receptor 7 [2]) [µM]
1 | CCNCc1nc2c3ccccc3nc(N)c2n1CC(C)(C)O.O=C(O)C(F)(F)F.O=C(O)C(F)(F)F | Not Active | 25
2 | CCNCc1nc2c3ccccc3ncc2n1CC(C)(C)O |  | 7.5
